From US9205064B2, “Methods for the diagnosis of oncological disorders using epimetabolic shifters, multidimensional intracellular molecules, or environmental influencers” (Berg LLC, priority 2009, dated 2015)

How the values were obtained:
[1] = tested on: HepG2 (liver cancer) cells; experiment: Real-time PCR Apoptosis Array; assay type: cell-based
Protocol: (§1) The treatment was initiated on 1×10^5 cells per well, following the procedure utilized in the PaCa2 cells (above, Examples 9-11). However, the total amount of RNA that was extracted from these samples was lower than expected. Reverse transcription is normally done using 1 μg of total RNA (determined by measurement at 260 nm). The maximum volume that can be used per reverse transcription is 8 μl.
However, the array for 48 hours was run choosing FAM as the fluorophore instead of SYBR. Both FAM and SYBR fluoresce at the same wavelength.

SCC cells = experiment: Real-time PCR Diabetes Array; assay type: cell-based; settings: 100 μM Q10, at 6 hours
Source text: The control cells were untreated cells.
RNA was quantified by measuring Optical Density at 260 nm.

[2] = tested on: HepG2 (liver cancer) cells; experiment: Real-time PCR Diabetes Array; assay type: cell-based
Protocol: as §1

variety of cell types = experiment: Western blot analysis (Bcl-xL, Vimentin, oxidative phosphorylation complexes, mitochondrial membrane integrity proteins); assay type: cell-based; settings: 50 or 100 μM Q10
Protocol: Approximately 50 μg of protein were assayed per sample by immunoblotting. All treatments were run in triplicate with controls. […] The primary antibodies were incubated overnight at 4 degrees C. in a 5% BSA and TBST solution. Secondary antibodies were incubated for one hour at 4 degrees. All antibodies were purchased from Cell Signaling Technology. Antibodies were used at a ratio of 1:1000, with the exception of βActin at a ratio of 1:5000. Blots were developed and results were quantified using the NIH Java based densitometer analysis software Image J. All blots were also probed for and normalized to their respective βActin expression.
The first experiment processed and evaluated by Western blot and 2-D gel electrophoresis was carried out on the skin cancer cell line SKMEL-28.
A variety of cell types were evaluated by Western blot analysis against an antibody for Bcl-xL (FIG. 14), an antibody for Vimentin (FIG. 15), a series of antibodies for mitochondrial oxidative phosphorylation function (FIGS. 16-21) and against a series of antibodies related to mitochondrial membrane integrity (FIGS. 22-27).

[3] = tested on: Pyruvate Dehydrogenase beta (PDH-E1); experiment: Western blot of pyruvate dehydrogenase beta levels; assay type: cell-based, human
Protocol: The samples were processed and run on a 4-12% Bis-Tris Novex NuPAGE gel as described above. The gels were run, transferred and stained essentially as described above.
The pyruvate kinase blots were stripped by incubating for 30 minutes with methanol, followed by two 10 minute washes with TBS-T, then 30 minutes of incubation with Stripping buffer at 50 deg C., and followed by two washes with 100 ml or more of TBS-T for 30′ each. The 2 blots were scanned in laser scanner to check for complete stripping. After making sure stripping of the antibody and the ECF reagent has worked, the blots were activated with methanol for 5 seconds, washed with water for 5 minutes, and TBST for 15 minutes. The blots are blocked for 1 hour with 5% blocking reagent in TBS-T at room temperature and then washed 3 times with TBS-T (1×-15′; 2×5′ each) and probed with the antibody for Pyruvate Dehydrogenase in 5% BSA (ABNOVA catalog #H00005162-M03) at 1:500 dilutions) overnight at 4 deg C. with shaking. […]
The levels of LDH and PDH were determined by probing the blots successively with primary antibodies for LDH and PDH, essentially as described above. […]

`COC1=C(OC)C(=O)C(C/C=C(\C)CC/C=C(\C)CC/C=C(\C)CC/C=C(\C)CC/C=C(\C)CC/C=C(\C)CC/C=C(\C)CC/C=C(\C)CC/C=C(\C)CCC=C(C)C)=C(C)C1=O` [Q10, Coenzyme Q10] was tested, and the “genes regulated in the Apoptosis Arrays” value ([1]; 100 μM Q10, gene BAG1) was “BAG1”, the “genes regulated in the Apoptosis Arrays” value ([1]; 100 μM Q10, gene CASP9) was “CASP9” and the “genes regulated in the Apoptosis Arrays” value ([1]; 100 μM Q10, gene TNFRSF1A) was “TNFRSF1A”. For the same compound, the “INPPL1 Regulation” value (SCC cells) was “Down regulated at”, the “genes regulated in the Diabetes Arrays” value ([2]; 100 μM Q10, PPARGC1A gene) was “PPARGC1A” and the “genes regulated in the Diabetes Arrays” value ([2]; 100 μM Q10, PRKAA1 gene) was “PRKAA1”. The “genes regulated in the Diabetes Arrays” value ([2]; 100 μM Q10, SNAP25 gene) was “SNAP25”, the “levels of examined proteins (Bcl-xL, Vimentin, oxidative phosphorylation and mitochondrial membrane integrity proteins)” value (variety of cell types) was “upregulated or downregulated” and the “expression of PDH-E1” value ([3]; cancer cells) was “progressive increase”. The “expression of PDH-E1” value ([3]; normal cells) was “minimal changes”.
